From patent US20250034520A1, “INCREASING DEVELOPMENTAL POTENTIAL OF HUMAN PREIMPLANTATION EMBRYOS BY REDUCING GENETIC INSTABILITY, ANEUPLOIDIES AND CHROMOSOMAL MOSAICISM” (THE TRUSTEES OF COLUMBIA UNIVERSITY IN THE CITY OF NEW YORK, priority 2022, published 2025)

Legend:
human embryos [1] = assay: nucleation and development of human embryos; format: cell-based
From the text: Cryopreserved human cleavage-stage and blastocyst embryos and unfertilized oocytes were anonymously donated from individuals and couples who provided consent for use in research. Embryos were of good quality and had been cryopreserved for potential clinical use but were then no longer needed and donated for research. The cause of treatment is not disclosed. Range of maternal age of donated embryos is between 27-43. Embryos of both sexes were used, as provided by the unbiased fertilization of oocytes with sperm carrying either a Y or X chromosome. Cleavage stage embryos were thawed using the one-step thaw protocol using Global total with HEPES. Blastocyst stage embryos were thawed using the Quinn's Advantage thaw kit, then exposed to experimental conditions as outlined below. Vitrified embryos were thawed with the ECMPC warming solution set. Embryo culture was performed in Global Total. All experiments were conducted during incubation at 37° C. with 5% CO2 and 20% 02.
(§1) Embryos, mouse and human, were cultured in Global Total (Life-Global) for the duration of the experiments and with added compounds as outlined below. Incubation in RNA polymerase inhibitors triptolide (1 mM) or alpha amanitin (20 mg/ml) was performed from the 2PN stage (day1) to day3 of human development. Incubation in aphidicolin was performed at 2 mM. […] Mirin was used at a concentration of 50 mM. Olaparib was used to inhibit PARP at a concentration of 10 mM. All experiments were conducted during incubation at 37° C. with 5% CO2 and 19-20% O2. Chemical stock solutions were prepared in DMSO at concentrations at least 1000× higher than the final concentration.
Following the experimental exposures, mouse and human embryos were fixed in 2% paraformaldehyde (PFA) and 0.25% Triton X-100 in PBS for 10 minutes at room temperature, serially washed in phosphate-buffered solution (PBS) at room temperature, then stored in PBS at 4° C. until staining and imaging. Embryos were placed in 10-20 ml droplets of primary antibody solution within plastic tissue culture dishes covered with mineral oil for 1 hour at room temperature, serially washed (×2) in PBS containing 0.01% Triton X-100 to prevent embryos sticking to oil, then transferred to 10-20 ml secondary antibody solution and Hoechst (dilution 1:500) for 30 minutes. Embryos were then serially washed (×2) and placed in 5 ml droplets of PBS with 0.5% serum albumin in uncoated glass bottom dishes (Mattek) covered with embryo culture oil for imaging. […]
Embryos were imaged with confocal microscopy using a Zeiss LSM (LSM 710) at a magnification of 63× and the Zeiss Zen software. […] Cell numbers and staining foci numbers were counted manually. […]

human embryos [2] = assay: single-cell/single-nuclei sequencing chromosome content analysis, human embryos; format: cell-based
Protocol: as §1
Single cells from blastomeres were collected on the heated stage (Tokai Hit) of an Olympus IX71 inverted microscope equipped with Narishige micromanipulators and a zona pellucida laser (Hamilton-Thorne). Single nuclei were isolated from blastomeres by lysis and dissection of different nuclei using two […] diameter Piezo micropipettes and Holding pipette (Origio). Single embryo cells or nuclei were placed manually in single wells of a 96-well plate containing 9 ml of lysis buffer, prepared as a master mix of 798 ml H2O, 6 ml of 10 mg/mL Proteinase K solution (Sigma-Aldrich), and 96 ml 10× Single Cell Lysis and Fragmentation buffer (Sigma-Aldrich). Single cells/single nuclei were lysed by heating 96-well plates containing single cells/single nuclei at 50° C. for 1 hour, followed by incubation at 99° C. for four minutes using a PCR thermocycler. Single-cell/single-nuclei whole genome amplification (WGA) using degenerate oligo-nucleotide priming PCR (DOP-PCR) was performed using the SEQPLEX Enhanced DNA Amplification Kit (SEQXE, Sigma) according to the manufacturer's instructions. In addition, a modified version of the DOP-PCR protocol that allows inline indexing of WGA DNA was also applied. WGA DNA was subsequently processed for Illumina library sequencing preparation using standard TruSeq indexing methods via the NEBNext Ultra II DNA Library Prep Kit for Illumina (New England Biolabs). NEBNext Multiplex Oligos for Illumina (96 index primers) were used for four amplification cycles. Library DNA was quantified using Qubit dsDNA HS Assay Kit (Invitrogen, Carlsbad, CA, USA) and library size distribution was confirmed using a 2100 Bioanalyzer DNA 1000 Kit (Agilent, Santa Clara, CA, USA). A unimodal curve centered around 300-500 bp was scored as a successful library preparation. Subsequently, 30 mL of each pooled library was sent for sequencing at a concentration of 20 ng/ml. Mutiplex sequencing was performed using Illumina HiSeq 2500 single end indexed run (SR100) while targeting a coverage of approximately 1 million reads per cell/nuclei, sufficient for quantitative genome-wide copy number analysis.
Analysis of DNA sequencing data was performed as previously described (Baslan et al., 2015) with minor modifications as outlined below. Briefly, multiplex sequencing data were demultiplexed according to unique barcodes with reads assigned to their respective single-cell or single-nuclei. Unique reads were aligned to the reference human and mouse genome builds, hg19 and mm9, respectively. Each genome was partitioned into 5000 bins using a previously described algorithm (Varbin) that corrects for genome sequence mappability (Baslan et al., 2012; Navin et al., 2011). Uniquely mapped reads were sorted, indexed and subsequently counted within the partitioned genomic bins. For single-cell copy number inference, read count data were normalized genome-wide followed by CBS segmentation (Olshen et al., 2004) and transformed into integer copy number states using a least-squares fit approach (Baslan et al., 2015).
Copy number inference from single-nuclei sequencing data was performed similarly with the exception that bin read counts were initially processed using Kernel Density Estimation (KDE) resulting in two primary densities. […]

[3] = aphidicolin and G2 checkpoint kinase inhibitor at 15.5 h

C[C@@]1(CO)[C@H](O)CC[C@@]2(C)[C@H]1CC[C@H]1C[C@@H]3C[C@@]12CC[C@]3(O)CO [aphidicolin]
formation of multinucleate cells (human embryos [1]; 6 parthenogenetically activated embryos, aphidicolin and G2 checkpoint kinase inhibitor at 15.5 h): uniformly resulting in the formation of multinucleate cells | failure to polarize chromosomes in the nucleus (human embryos [1]; aphidicolin-treated human parthenotes): 16/17 | chromosomal breaks identified (human embryos [2]; 4 2PN zygotes, aphidicolin and CHK1 inhibitor at 18 h post ICSI): 7 | aneuploidy (human embryos [2]; addition of aphidicolin to CHK1 inhibition in G2 phase): further amplified | chromosomes with one or more segmental copy-number transitions, share (human embryos [2]; [3]): 27% | independent break points per embryo, average (human embryos [2]; [3]): 51 | whole-chromosome losses, share of aneuploid chromosomes in micronuclei (human embryos [2]; [3]): 73% | total break sites (human embryos [2]; aphidicolin and G2 checkpoint kinase inhibitor at 15.5 h, 21 micronuclei from 4 zygotes): 331 | human embryos aneuploid (human embryos [2]; combined aphidicolin exposure and G2 checkpoint inhibition): all
